Measurements published in the supplement of paper PMC11061612.

Tests used:
[1] = tested on: TE-10 (Esophageal Squamous Cell Carcinoma); assay: combination Emax (second highest fraction inhibited in the dose matrix, 72 h); higher = more inhibition; extreme values may be limits of the assay
In short: (§1)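 Bliss excess equals the observed combination effect minus the expected value EA + EB − EA·EB, where EA and EB are the effects of each agent alone. Combination Emax is the second-highest inhibition within the matrix. Inhibition was scaled from CellTiter-Glo 2.0 luminescence, with 0 set by vehicle wells and 1 by blank wells, after 72 hours of two-drug dosing of cells plated in 1536-well plates.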

[2] = tested on: NCI-H716 (Colorectal Carcinoma); assay: Bliss excess, mean over the matrix (fraction); higher = more synergy
In short: as §1

[3] = tested on: KYSE-220 (Esophageal Squamous Cell Carcinoma); assay: as above
In short: as §1

COLO-792 (Melanoma) = assay: as above
In short: as §1

KP-N-YN (Neuroblastoma) = assay: as above
In short: as §1

[4] = tested on: 22RV1 (Prostate Carcinoma); assay: as above
In short: as §1

[5] = tested on: NCI-H2087 (Lung Adenocarcinoma); assay: as above
In short: as §1

PEO1 (Ovarian Carcinoma) = assay: as above
In short: as §1

[6] = tested on: TE-10 (Esophageal Squamous Cell Carcinoma); assay: as above
In short: as §1

[7] = tested on: NCI-H1703 (Squamous Cell Lung Carcinoma); assay: as above
In short: as §1

A204 (Rhabdomyosarcoma) = assay: as above
In short: as §1

[8] = tested on: UACC-812 (Breast Carcinoma); assay: as above
In short: as §1

Row | SMILES | combination Emax [1] | Bliss excess [2] | Bliss excess [3] | Bliss excess (COLO-792 (Melanoma)) | Bliss excess (KP-N-YN (Neuroblastoma)) | Bliss excess [4] | Bliss excess [5] | Bliss excess (PEO1 (Ovarian Carcinoma)) | Bliss excess [6] | Bliss excess [7] | Bliss excess (A204 (Rhabdomyosarcoma)) | Bliss excess [8]
1 | Cc1c2c(nn1C)CSCc1cc(n(C)n1)CSc1cc(c3ccccc3c1)OCCCc1c(C(=O)O)n(C)c3c-2c(Cl)ccc13 [AZD5991] + C[C@@H]1COCCN1C2=NC(=NC(=C2)C3(CC3)[S@](=N)(=O)C)C4=C5C=CNC5=NC=C4 [AZD6738] (first compound max 1 µM, 7x7, partner max 10 µM) | 0.901 | 0.0138 | -0.0328 | 0.0026 | -0.0067 | 0.0449 | -0.0396 | 0.0062 | -0.0332 | -0.0108 | 0.0507 | 0.0094
2 | COc1cccc(OCCCN)c1-c1cc(Nc2cnc(C#N)cn2)n[nH]1 [Prexasertib] + CN(C)CCCOc1ccc(-c2ccc3ncc4c(c3c2)n(C2CCOCC2)c(=O)n4C)cn1 [AZD0156] (first compound max 1 µM, 7x7, partner max 1 µM) | 0.938 | 0.025 | -0.026 | -0.0447 | 0.0202 | -0.0213 | -0.0405 | -0.0168 | -0.0174 | -0.0295 | -0.018 | -0.0324
3 | COc1cccc(OCCCN)c1-c1cc(Nc2cnc(C#N)cn2)n[nH]1 [Prexasertib] + Cc1cc2ncnn2cc1Nc1ncc2c(n1)n(C1CCOCC1)c(=O)n2C [AZD7648] (first compound max 1 µM, 7x7, partner max 10 µM) | 0.938 | 0.0577 | -0.0308 | 0.0103 | -0.0221 | -0.0316 | 0.008 | -0.0117 | -0.0604 | -0.0192 | -0.091 | -0.0402
4 | COc1cccc(OCCCN)c1-c1cc(Nc2cnc(C#N)cn2)n[nH]1 [Prexasertib] + C=CCn1c(=O)c2cnc(Nc3ccc(N4CCN(C)CC4)cc3)nc2n1-c1cccc(C(C)(C)O)n1 [AZD1775] (first compound max 1 µM, partner max 1 µM) | 0.976 | 0.0167 | 0.0333 | 0.0236 | 0.0385 | 0.06 | 0.0576 | 0.0825 | 0.0262 | 0.066 | 0.0437 | 0.0705
5 | CN(C)CCCOc1ccc(-c2ccc3ncc4c(c3c2)n(C2CCOCC2)c(=O)n4C)cn1 [AZD0156] + C[C@@H]1COCCN1C2=NC(=NC(=C2)C3(CC3)[S@](=N)(=O)C)C4=C5C=CNC5=NC=C4 [AZD6738] (first compound max 1 µM, 7x7, partner max 10 µM) | 0.814 | 0.0459 | 0.0134 | -0.0297 | 0.0249 | -0.0678 | -0.0008 | -0.0327 | -0.0075 | -0.0341 | -0.038 | -0.0108
6 | CC1(C)CCC(CN2CCN(c3ccc(C(=O)NS(=O)(=O)c4ccc(NCC5CCOCC5)c([N+](=O)[O-])c4)c(Oc4cnc5[nH]ccc5c4)c3)CC2)=C(c2ccc(Cl)cc2)C1 [Venetoclax] + Cn1cnc2c(F)c(Nc3ccc(Br)cc3Cl)c(C(=O)NOCCO)cc21 [Selumetinib] (first compound max 1 µM, 7x7, partner max 3 µM) | 0.415 | -0.0814 | 0.0102 | 0.0083 | -0.0102 | -0.0091 | -0.0207 | -0.0452 | -0.0404 | 0.0061 | -0.0293 | -0.0297
7 | COc1cccc(OCCCN)c1-c1cc(Nc2cnc(C#N)cn2)n[nH]1 [Prexasertib] + C[C@@H]1COCCN1C2=NC(=NC(=C2)C3(CC3)[S@](=N)(=O)C)C4=C5C=CNC5=NC=C4 [AZD6738] (first compound max 1 µM, 7x7, partner max 10 µM) | 0.945 | -0.0432 | -0.0294 | -0.0376 | -0.0048 | 0.0209 | 0.0072 | -0.0083 | -0.0244 | 0.0047 | -0.0542 | 0.049
8 | CC1(C)CCC(CN2CCN(c3ccc(C(=O)NS(=O)(=O)c4ccc(NCC5CCOCC5)c([N+](=O)[O-])c4)c(Oc4cnc5[nH]ccc5c4)c3)CC2)=C(c2ccc(Cl)cc2)C1 [Venetoclax] + Cc1cc2ncnn2cc1Nc1ncc2c(n1)n(C1CCOCC1)c(=O)n2C [AZD7648] (first compound max 1 µM, 7x7, partner max 10 µM) | 0.477 | -0.0146 | -0.0371 | -0.0139 | -0.0085 | -0.0313 | -0.0467 | -0.033 | -0.0068 | 0.0396 | -0.0172 | 0.0286
9 | Cc1c2c(nn1C)CSCc1cc(n(C)n1)CSc1cc(c3ccccc3c1)OCCCc1c(C(=O)O)n(C)c3c-2c(Cl)ccc13 [AZD5991] + C1CN(CCC1(C(=O)N[C@@H](CCO)C2=CC=C(C=C2)Cl)N)C3=NC=NC4=C3C=CN4 [Capivasertib] (first compound max 1 µM, 7x7, partner max 3 µM) | 0.901 | 0.0001 | 0.0187 | 0.0076 | -0.0382 | 0.0404 | -0.0295 | -0.0428 | 0.0484 | 0.0157 | -0.0305 | 0.0196
10 | CN(C)CCCOc1ccc(-c2ccc3ncc4c(c3c2)n(C2CCOCC2)c(=O)n4C)cn1 [AZD0156] + C=CCn1c(=O)c2cnc(Nc3ccc(N4CCN(C)CC4)cc3)nc2n1-c1cccc(C(C)(C)O)n1 [AZD1775] (first compound max 1 µM, partner max 1 µM) | 0.808 | 0.022 | -0.0432 | -0.017 | -0.0161 | -0.095 | -0.071 | -0.0442 | -0.033 | -0.051 | -0.0545 | -0.0561
11 | C[C@@H]1COCCN1c1cc(C2([S@](C)(=N)=O)CC2)nc(-c2ccnc3[nH]ccc23)n1 [AZD6738] + O=C(c1cc(Cc2n[nH]c(=O)c3ccccc23)ccc1F)N1CCN(C(=O)C2CC2)CC1 [Olaparib] (first compound max 10 µM, 7x7, partner max 10 µM) | 0.78 | -0.0229 | -0.0642 | 0.0322 | -0.203 | 0.0117 | -0.0008 | 0.0069 | -0.0141 | -0.041 | -0.0075 | -0.0422
12 | CC1(C)CCC(CN2CCN(c3ccc(C(=O)NS(=O)(=O)c4ccc(NCC5CCOCC5)c([N+](=O)[O-])c4)c(Oc4cnc5[nH]ccc5c4)c3)CC2)=C(c2ccc(Cl)cc2)C1 [Venetoclax] + CCN(CCO)CCCOc1ccc2c(Nc3cc(CC(=O)Nc4cccc(F)c4)[nH]n3)ncnc2c1 [AZD2811] (first compound max 1 µM, 7x7, partner max 1 µM) | 0.59 | -0.0813 | 0.0335 | -0.0048 | 0.104 | -0.001 | -0.0281 | -0.0314 | -0.0502 | 0.0412 | 0.0005 | -0.0283
13 | CCN(CCO)CCCOc1ccc2c(Nc3cc(CC(=O)Nc4cccc(F)c4)[nH]n3)ncnc2c1 [AZD2811] + C[C@@H]1COCCN1C2=NC(=NC(=C2)C3(CC3)[S@](=N)(=O)C)C4=C5C=CNC5=NC=C4 [AZD6738] (first compound max 1 µM, 7x7, partner max 10 µM) | 0.794 | -0.0765 | -0.0541 | 0.0336 | -0.0751 | -0.103 | -0.0712 | -0.0718 | -0.0869 | -0.0148 | -0.0492 | -0.0303
14 | C=CCn1c(=O)c2cnc(Nc3ccc(N4CCN(C)CC4)cc3)nc2n1-c1cccc(C(C)(C)O)n1 [AZD1775] + C[C@@H]1COCCN1C2=NC(=NC(=C2)C3(CC3)[S@](=N)(=O)C)C4=C5C=CNC5=NC=C4 [AZD6738] (first compound max 1 µM, partner max 10 µM) | 0.901 | -0.0004 | 0.0242 | 0.0941 | -0.005 | -0.0536 | -0.0317 | -0.0234 | -0.0029 | 0.0263 | -0.0421 | 0.0176
15 | CC1(C)CCC(CN2CCN(c3ccc(C(=O)NS(=O)(=O)c4ccc(NCC5CCOCC5)c([N+](=O)[O-])c4)c(Oc4cnc5[nH]ccc5c4)c3)CC2)=C(c2ccc(Cl)cc2)C1 [Venetoclax] + COc1cc(Nc2ncc3c(n2)-c2ccc(Cl)cc2C(c2c(F)cccc2OC)=NC3)ccc1C(=O)O [Alisertib] (first compound max 1 µM, 7x7, partner max 10 µM) | 0.639 | -0.0203 | -0.0305 | 0.0487 | 0.0886 | 0.003 | -0.0241 | 0.0007 | -0.0401 | 0.0636 | -0.0088 | -0.0157
16 | CC1(C)CCC(CN2CCN(c3ccc(C(=O)NS(=O)(=O)c4ccc(NCC5CCOCC5)c([N+](=O)[O-])c4)c(Oc4cnc5[nH]ccc5c4)c3)CC2)=C(c2ccc(Cl)cc2)C1 [Venetoclax] + CN(C)CCCOc1ccc(-c2ccc3ncc4c(c3c2)n(C2CCOCC2)c(=O)n4C)cn1 [AZD0156] (first compound max 1 µM, 7x7, partner max 1 µM) | 0.674 | -0.0272 | -0.0135 | 0.0153 | -0.0016 | -0.0277 | -0.0389 | -0.018 | 0.0071 | 0.013 | -0.0325 | -0.016
17 | Cc1c2c(nn1C)CSCc1cc(n(C)n1)CSc1cc(c3ccccc3c1)OCCCc1c(C(=O)O)n(C)c3c-2c(Cl)ccc13 [AZD5991] + CCN(CCO)CCCOc1ccc2c(Nc3cc(CC(=O)Nc4cccc(F)c4)[nH]n3)ncnc2c1 [AZD2811] (first compound max 1 µM, 7x7, partner max 1 µM) | 0.848 | -0.0013 | 0.0088 | -0.0095 | 0.0556 | -0.0004 | -0.0144 | 0.0502 | -0.0161 | 0.0139 | 0.0358 | -0.0149
18 | CCN(CCO)CCCOc1ccc2c(Nc3cc(CC(=O)Nc4cccc(F)c4)[nH]n3)ncnc2c1 [AZD2811] + C=CCn1c(=O)c2cnc(Nc3ccc(N4CCN(C)CC4)cc3)nc2n1-c1cccc(C(C)(C)O)n1 [AZD1775] (first compound max 1 µM, partner max 1 µM) | 0.737 | 0.0847 | -0.0225 | 0.043 | -0.027 | -0.0367 | -0.0831 | -0.0025 | 0.0176 | -0.0453 | 0.0168 | -0.0352
19 | CC1(C)CCC(CN2CCN(c3ccc(C(=O)NS(=O)(=O)c4ccc(NCC5CCOCC5)c([N+](=O)[O-])c4)c(Oc4cnc5[nH]ccc5c4)c3)CC2)=C(c2ccc(Cl)cc2)C1 [Venetoclax] + C[C@@H](Nc1cc(F)cc(F)c1)c1cc(C(=O)N(C)C)cc2c(=O)cc(N3CCOCC3)oc12 [AZD8186] (first compound max 1 µM, 7x7, partner max 3 µM) | 0.373 | -0.047 | -0.0332 | 0.0036 | 0.104 | -0.0172 | -0.0442 | -0.0427 | -0.0428 | 0.0037 | -0.0152 | -0.0319
